In general, melting point refers to the temperature, or range, at which the solid turns liquid. In turn, `C=C(C)c1nc(CCC)n(Cc2ccc(-c3ccccc3C(=O)C(=O)O)cc2)c1C(=O)O` yielded a melting point of 150 to 151 °C.

Turning to `CC(C)(C)C(=O)OCOC(=O)c1[nH]c2ccccc2c1Nc1ccncc1`, the melting point is 223 to 224 °C.

`CNc1cc(C(F)(F)F)cc(N(CCN(C)C)C(=O)N(C)C)n1`: the melting point fell in the range of 101 to 103 °C.

Consider `COc1ccc2ccc(Nc3cc(-c4ccc(C(F)(F)F)cc4)ncn3)cc2n1`, for which the melting point was found to be 199 °C.

With `Cc1ccnc(Nc2nc(-c3c[nH]nc3C(=O)c3ccccc3)cs2)n1`, the melting point was in the range of 254 to 255 °C.

With `CC(C)(C)OC(=O)C[C@@H](NC(=O)/C=C/S(=O)(=O)c1ccccc1)C(=O)OC(C)(C)C`, the melting point was 168 to 169 °C.

`CCC(C=O)c1ccc(S(=O)(=O)NC)cc1` (centres undefined) registered a melting point of 202 to 204 °C.

`CCOC(=O)c1cn(-c2c(F)cc(F)cc2F)c2nc(Cl)c(F)cc2c1=O`: the melting point is 158 to 160 °C.

`Clc1ccc(N2CC=C(COc3ccc(C4=NCCO4)cc3)CC2)nn1`: the melting point is 176 °C.

The compound `O=C(O)CCCCCCCCCCCCCCCCCCI` registered a melting point of 70 to 71.5 °C.

As for `COc1cccc(-c2nccc3[nH]c(=O)c(-c4noc(C)n4)cc23)c1`, the melting point is 281 to 282 °C.

Take `C=CCOc1ccc(-c2ccc(C(=O)O)cc2)cc1`: the melting point stood at 360 °C.

`Cc1nc(C)c(Cl)c(NCc2ccc(O)cc2)n1`: the melting point was determined as 202 °C.

On to `CN1C(=O)C(=Cc2cc(C(C)(C)C)c(O)c(C(C)(C)C)c2)SC1O` (centres undefined), for which the melting point fell in the range of 165 to 170 °C.

In turn, `N#Cc1ccc(OCCc2coc(-c3ccccc3)n2)cc1` registered a melting point of 115 °C.

As for `OC1CCc2c(Br)ccc(Nc3cc(-c4ccc(C(F)(F)F)cc4)ncn3)c2C1` (centres undefined), the melting point worked out at 192 °C.

For `CC(=O)N1CCN(NC(=O)c2cccs2)CC1`, the melting point was in the range of 212 to 213 °C.

For the compound `CN(C)CCNS(=O)(=O)c1ccc(O)cc1`, the melting point fell in the range of 165 to 168 °C.

On to `CC(=O)Nc1ccc(N(C)C(=O)OCc2ccccc2)c(O)c1`, for which the melting point came out at 174 °C.

`O=C(OC1CCCCC1)C(c1ccccc1)n1cnc2[nH]ncc2c1=O` (centres undefined): the melting point was 176 to 180 °C.

On to `Cc1cc(-c2noc(C(F)(F)F)n2)cc(C)c1OCCCc1ccc(Cl)nc1`, for which the melting point is 89 to 91 °C.

The compound `O=S(=O)(Nc1cccc(CCOCc2ccc(-c3cccc(Cl)c3)cc2)c1)C(F)(F)F` had a melting point of 105 to 107 °C.

Regarding `CC(=O)Nc1ccc(Sc2c(N)cc(C(=O)O)cc2S(N)(=O)=O)cc1`, the melting point amounted to 207 °C.

Turning to `Clc1cn2c(Cl)cnc2cn1`, the melting point is 115 to 116 °C.

With `CNC(=N[N+](=O)[O-])NCc1ccc(Cl)nc1`, the melting point was in the range of 150 to 152 °C.

As for `COc1ccc(C2=NN(CCCOc3ccccc3)C(=O)[C@H]3CCCC[C@@H]23)cc1OC` (relative stereo), the melting point was in the range of 78 to 81 °C.

`CC(O)=C(C#N)C(=O)Nc1cc(Cl)ccc1Cl`: the melting point lay in the range of 143 to 144 °C.

In turn, `CCC(=NNc1ccc(C2=NNC(=O)CC2)cc1)c1ccncc1` had a melting point of 235 to 237 °C.

`CC(C)Sc1nc(-c2ccc(F)cc2)c(-c2ccncc2)[nH]1` gave a melting point of 263 to 264 °C.

The compound `O=C(O)c1ccc2cc(OCCCCCCc3cccc(OCc4ccccc4)c3OCc3ccccc3)ccc2c1` had a melting point of 66 to 68 °C.

Turning to `CCc1oc2ccccc2c1C(=O)c1ccc(OCCO)cc1`, the melting point was in the range of 78 to 83 °C.

Turning to `CCOC(=O)C1Cc2ccc(NC(=O)OCc3ccccc3)cc2NC1=O` (centres undefined), the melting point fell in the range of 187 to 189 °C.

As for `CSc1nc(C)n(CC(=O)O)c(=O)c1C#N`, the melting point fell in the range of 236 to 238 °C.

In turn, `CC(=O)c1ccc(OCCCN2CCC(C(O)(c3ccc(F)cc3)c3ccc(F)cc3)CC2)c(C)c1` registered a melting point of 116 to 117 °C.

As for `CC(C)(C)NC(=O)[C@@H]1CC(=O)CN1C(=O)OC(C)(C)C`, the melting point was 147 to 149 °C.

As for `CCCn1nc2c(N)nc3ccccc3c2c1CC(C)C`, the melting point fell in the range of 199 to 200 °C.

In the case of `Oc1c2c(nn1-c1ccccn1)CCc1cc(-c3ccc4c(c3)OCO4)ccc1-2`, the melting point lay in the range of 205 to 206 °C.

Compound `CON(C(=O)c1cn(C)nc1C(F)F)C(CF)Cc1c(Cl)cc(Cl)cc1Cl` (centres undefined) returned a melting point of 117 to 118 °C.

For `CNC(=O)c1ccc(C=CC(=O)NCC(=O)N(C)c2ccc(Cl)c(COc3cccc4c(OCC(=O)O)cc(C)nc34)c2Cl)cc1`, the melting point is 233 to 257 °C.

As to `Cc1cc(C#N)cc(C(=O)Nc2ccc(Cl)cn2)n1`, the melting point was 234 °C.

`CCCCc1nc(C(C)(C)O)c(C#N)[nH]1` had a melting point of 171 to 172 °C.

The compound `CCOc1nn(-c2ccc(C(F)(F)F)cn2)cc1CCOc1ccc(CC(=O)O)cc1` had a melting point of 142 to 143 °C.

Compound `CCN(CC)C(=O)Cc1c(-c2ccc(OC)cc2)nc2c(C)cc(C)nn12` gave a melting point of 129 to 131 °C.

With `COC(=O)c1cc(S(N)(=O)=O)c(Br)cc1C`, the melting point lay in the range of 198 to 200 °C.

With `O=S1(=O)N=C(c2cccc(Cl)c2)c2ccccc21`, the melting point lay within 149 to 150 °C.

For the compound `N#Cc1cc(-c2ccnc(Nc3cccc(C(F)(F)F)c3)n2)ccn1`, the melting point is 164 to 166 °C.

`CCOC(=O)c1c(C)[nH]c2ccccc12` had a melting point of 96 to 98 °C.

On to `COc1ccc(C2CCN(c3c(C)c(C)c4c(c3C)C(c3ccccc3)C(C)(C)O4)CC2)cc1OC` (centres undefined), for which the melting point fell in the range of 118 to 120 °C.

Turning to `CC(C)CCN1C(=O)C(NC(=O)Nc2cccc(-c3nnn[nH]3)c2)C(=O)N(c2ccccc2)c2ccccc21` (centres undefined), the melting point fell in the range of 220 to 222 °C.

Compound `CCOC(=O)C1=C(COCc2nnn(CCNc3ccc(S(=O)(=O)N4CCOCC4)cn3)n2)NC(C)=C(C(=O)OC)C1c1cccc(Cl)c1Cl` (centres undefined) showed a melting point of 112 to 114 °C.

In the case of `C[C@@H]1C(=O)C[C@H]2C[C@@H]1OO[C@@]2(C)/C=C\c1ccc(C#N)cc1`, the melting point turned out to be 125 °C.

As to `CC(C)Cc1ccc(C(C)C(=O)NO)cc1` (centres undefined), the melting point fell in the range of 119 to 121 °C.

Take `COC(=O)CN1CCCC(Nc2ncc3ncnc(Nc4cccc(Br)c4)c3n2)C1` (centres undefined): the melting point was determined as 113 °C.

`CCc1cc(OCc2ccccc2)c2c(Cl)cccc2n1` registered a melting point of 78 to 80 °C.

`Cc1csc(C(=O)O)c1NC(=O)OC(C)(C)C` gave a melting point of 179 to 180 °C.

The compound `CN(C)S(=O)(=O)c1cccc(NN)n1` yielded a melting point of 117 to 120 °C.

`CCOC(=O)CCc1ccc2c(c1)CC(CNS(=O)(=O)c1ccc(Cl)cc1)C2` (centres undefined) showed a melting point of 90 to 93 °C.

In turn, `CC(C)[Si](C)(C)CCSCCNC(=O)n1cc(F)c(=O)[nH]c1=O` gave a melting point of 85 to 86 °C.

As for `CC(C)Cc1ccc(C(C)C(=O)Oc2ccc([N+](=O)[O-])cc2)cc1` (centres undefined), the melting point lay within 156 to 162 °C.

Regarding `CCc1ccc2c(c1)NC(=O)C2=O`, the melting point was in the range of 128 to 136 °C.

Consider `Cc1ccc2c(c1)SC1(CCOC1=O)C2=O` (centres undefined), for which the melting point was 122 to 124 °C.

`O=C1C=CC(O)(c2cc3ccccc3n2S(=O)(=O)c2ccc(F)cc2)C=C1`: the melting point lay within 165 to 166 °C.

The compound `O=S(=O)(Cl)c1ccc2oc(-c3ccncc3)cc2c1` returned a melting point of 210 °C.

`COc1c(NC2CCC3(CC2)OCC(C)(C)CO3)ccnc1C` registered a melting point of 45 °C.

Values taken from a melting point compilation (Tetko et al.; mined from patent text by program, amines drawn as free bases though some values may be those of a salt).
